From patent US5143903A, “Method of treatment with tripeptide pharmaceutical compositions as immunomodulators” (priority 1989, dated 1992)

Tests used:
[1] = tested on: Mononuclear cells of peripheral human blood (PBMC); assay: Test on the proliferation of mononuclear cells; type: cell-based; set-up: key: expressing with +, ++ and +++ the substances acting as stimulants (from the least to the most effective); expressing with +, ++ and +++ the substances acting as stimulants (from the least to the most effective); expressing with +, ++ and +++ the substances acting as stimulants (from the least to the most effective); with -, -- and --- the substances inhibiting normal cell growth; with -, -- and --- the substances inhibiting normal cell growth; with -, -- and --- the substances inhibiting normal cell growth; The inactive compounds were expressed with =; separating with / the effects of the higher doses from those of the lower doses; conditions: Table 2, tritium thymidine; for Effect on cell proliferation, ACTIVATOR USED Interl. 2: PBMC activated with Interleukin 2, 6 days
Method: Mononuclear cells of peripheral human blood (PBMC), provided by healthy volunteers, were purified according to techniques normally used in haematology laboratories, and were finally suspended, at a concentration of 1.000.000/ml in the bed RPMI 1640 (company Flow Laboratories), enriched with 10% of heat inactivated human serum, 2 mM of glutamine and 40 mcg/ml of Gentalyn (from Shering Co.).
The cells were cultivated (100.000/pit) in triplicate on plates of 96 flat-bottomed pits, for a varying number of days according to the activating substances used (6 days for Interleukin 2 and PPD, 3 days for PHA and ConA), in 200 microliters of the suspension bed, in an incubator at 37° C. with 5% CO2. During the last 17 hours of culture the cells were marked with 0,5 microCuries of tritium thymidine (TdR). At the end of the incubation period, the radioactivity present in the cells was gathered on fiberglass filters. Embedded TdR was measured in a beta-radiation counter.
The results are expressed as arithmetic averages of the counts.
On the cells cultivated in this manner the effect of the substances derived from snake poison was tested.
Using the same methods employed in the test described above, a series of compounds having a peptide structure according to the invention, along with other control compounds, were tested for their imunomodulant activity.

T lymphocites = assay: Comparison with Interferon gamma: proliferative response of T lymphocites after presentation of B lymphocites treated with PPD; type: cell-based; conditions: 1000 u/ml
Source text: With the aim of more detailed study of the mechanism of action, the effect of the tripeptide PYR-LEU-TRP has been compared to that of Interferon gamma as regards the stimulation of the proliferative response of T lymphocites after presentation of the B lymphocites treated with PPD.

Molecule	Effect on cell proliferation, ACTIVATOR USED Interl. 2 [1]	increase of the basal proliferative response (T lymphocites)	Effect on cell proliferation, ACTIVATOR USED PPD ([1]; PBMC activated with PPD, 6 days)
Z--PRO--LEU--TRP	+++		
gamma Interferon: Interferon gamma, compared with the tripeptide at 1000 u/ml		approximately two and a half times	
CC(C)C[C@H](NP(=O)(O)O[C@@H]1O[C@@H](C)[C@H](O)[C@@H](O)[C@H]1O)C(=O)N[C@@H](Cc1c[nH]c2ccccc12)C(=O)O [Phosphoramidon]	+++		+++
